pEC50: −log10 of the molar value.
Key:
[1] = food intake and body weight of normal mice after a single subcutaneous injection; assay type: in vivo; settings: C57BL/6 mice, over 3 days; for Body weight changes: vs baseline
Description: 6-8 weeks old male C57BL/6 mice were fed in animal feeding rooms with strictly controlled environmental conditions, the temperature in the feeding room was maintained at 20° C.-24° C. and the humidity was maintained at 30%-70%. The light cycle in the animal feeding room was 12 hours (starting at 7:00 am and ending at 7:00 pm). During the experiment, animals were kept in single cages and toys were provided in each cage. During the experiment, animals were free to consume food (growth/reproduction feed for mice and rats) and water.
Body weight without fasting and initial food weight before administration were recorded, and the animals were administered with a single subcutaneous injection, and the daily body weight and food intake weight were recorded for 3 days after administration. The activity, water intake, diet, and body weight changes of animals were observed every day. The changes in body weight and food intake weight were calculated compared to the baseline levels of each group (the initial body weight and food intake weight before administration), with body weight changes expressed as percentages (baseline was 100%).

[2] = pharmacokinetics in crab-eating macaques; assay type: in vivo; settings: male crab-eating macaque, 0.246 mg/kg single s.c., plasma
Description: (§1) Blood samples were collected from each animal at each time point after administration, and the blood samples were centrifuged at around 4° C., 3200 g, for 10 minutes. Plasma was collected separately, transferred to pre-labeled 96-well plates or polypropylene tubes, speedily frozen on dry ice, and stored at −60° C. or lower until LC-MS/MS analysis.
(§2) LC-MS/MS method was adopted to determine the concentration of the measured analogues in blood samples. The data on the changes in plasma concentration over time were plotted into a chart and analyzed using non partitioned methods with Phoenix WinNonlin 6.3 software program. Relevant PK parameters were calculated based on the administration routes.
The plasma pharmacokinetics of PYY analogues in male crab-eating macaques were evaluated after a single subcutaneous administration of 0.246 mg/kg Analogue 3. Blood samples were collected from 2 crab-eating macaques at each time point after administration for 1 h, 2 h, 4 h, 8 h, 12 h, 24 h, 48 h, 72 h, 96 h, 120 h, 144 h, 168 h, 192 h, 240 h, 288 h, 336 h, 408 h, 504 h, extending to 504 hours. Due to the use of discontinuous sampling to evaluate the kinetics of PYY analogues in crab-eating macaques, the pharmacokinetic parameters of Analogue 3 after a single subcutaneous administration of 0.246 mg/kg were listed using average concentration-time data.

[3] = pharmacokinetics in SD rats; assay type: in vivo; settings: male rat, 0.492 mg/kg single s.c., plasma
Description: as §1, §2
The plasma pharmacokinetics of PYY analogues in male SD rats were evaluated after a single subcutaneous administration of 0.492 mg/kg Analogue 3. Blood samples were collected from 3 rats at each time point after administration for 0.5 h, 1 h, 2 h, 4 h, 8 h, 12 h, 16 h, 24 h, 48 h, 72 h, 96 h, 120 h, 144 h, 168 h, extending to 168 h. Due to the use of discontinuous sampling to evaluate the kinetics of PYY analogues in rats, the pharmacokinetic parameters of Analogue 3 after a single subcutaneous administration of 0.492 mg/kg were listed using average concentration-time data.

[4] = target: T1, recombinant human NPY2 receptor (Homo sapiens, UniProt P49146); assay: cAMP assay, in vitro functional activity on NPY2 receptors; assay type: cell-based; settings: inhibition of Forskolin-induced cAMP in HEK 293 cells overexpressing hNPY2R; average, at least 3 independent tests
T1 construct: expressed in transfected cells; host or cells: HEK 293
T1 sequence (P49146 1-381): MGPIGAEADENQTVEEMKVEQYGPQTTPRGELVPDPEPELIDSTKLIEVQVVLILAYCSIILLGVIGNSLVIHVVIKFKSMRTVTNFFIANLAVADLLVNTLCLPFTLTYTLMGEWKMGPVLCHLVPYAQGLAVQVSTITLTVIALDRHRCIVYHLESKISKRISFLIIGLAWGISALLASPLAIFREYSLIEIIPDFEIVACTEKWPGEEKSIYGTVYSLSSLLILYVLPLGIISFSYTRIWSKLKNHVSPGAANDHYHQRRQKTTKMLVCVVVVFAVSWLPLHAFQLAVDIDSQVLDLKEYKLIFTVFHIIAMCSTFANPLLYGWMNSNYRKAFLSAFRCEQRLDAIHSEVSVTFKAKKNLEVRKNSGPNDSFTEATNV
Description: 2) Preparation of cells: the cultured cells were collected into a 15 mL sterile centrifuge tube, and centrifuged at 1000 rpm for 5 minutes, with the supernatant being discarded. 10 mL of 1×PBS was added, mixed gently, and centrifuged at 1000 rpm for 5 minutes, with the supernatant being discarded.
4) According to the arrangement order of Map analogues, 100 nL of prepared analogues were added to a 384-well cell reaction plate using Echo. After addition, they were centrifuged at 1000 rpm for 1 minute.
5) 5 μL of 2 μM Forskolin (prepared with detection buffer) was added to a 384-well cell reaction plate using Multidrop Combi and centrifuged at 1000 rpm for 1 minute. 5 μL of detection buffer containing cells was added to a 384-well reaction plate, ensuring a cell count of 3000 cells per well.
6) 10 μL cAMP detection reagent solution (1×cell lysis buffer 9.5 mL, 1×D2-cAMP solution, 1×cAMP-antibody) was added to the corresponding wells of the cell reaction plate using Multidrop Combi. It was covered with a lid and incubated at room temperature in the dark for 1 hour.
7) After incubation for 1 hour, it was placed in an EnVision microplate reader for measurement.

[5] = target: T2, human NPY1 receptor (hNPY1R) (Homo sapiens, UniProt P25929); assay: calcium flux (FLIPR) assay, functional activity on human NPY1 receptor; assay type: cell-based; settings: average, at least 3 independent tests
T2 construct: expressed in transfected cells
T2 sequence (P25929 1-384): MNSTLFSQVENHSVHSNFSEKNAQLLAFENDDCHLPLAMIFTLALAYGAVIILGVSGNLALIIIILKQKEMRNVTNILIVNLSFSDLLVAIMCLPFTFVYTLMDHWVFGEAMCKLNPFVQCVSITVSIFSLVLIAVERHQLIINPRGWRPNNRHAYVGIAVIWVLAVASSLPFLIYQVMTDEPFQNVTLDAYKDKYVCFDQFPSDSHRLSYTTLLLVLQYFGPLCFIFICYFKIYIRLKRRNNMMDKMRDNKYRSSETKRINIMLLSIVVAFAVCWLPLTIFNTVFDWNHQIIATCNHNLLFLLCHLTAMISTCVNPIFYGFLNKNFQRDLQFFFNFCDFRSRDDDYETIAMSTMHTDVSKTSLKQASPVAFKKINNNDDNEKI
Description: (§3) 1) Preheated the culture medium, 1×DPBS and 0.05% trypsin EDTA in a 37° C. water bath for more than 30 minutes in advance, and ready for use.
(§4) 3) Cultured cells were taken out from the incubator, added with 1×DPBS, incubated for a moment, suctioned to remove DPBS, added with an appropriate amount of 0.05% trypsin-EDTA for cell digestion, digestion terminated with 10% FBS medium, and dispersed the cells.
(§5) 4) The dispersed cells were transferred into a 50 mL centrifuge tube using a pipette, centrifuged at 1000 rpm for 5 minutes, resuspended in culture medium, dispersed, and counted.
(§6) 5) The cells were diluted with culture medium to 1×10^6 cells/mL, and inoculated at a volume of 20 μL/well of cells onto 384-well poly-Lysine-coated cell plates.
(§7) 6) The cells were incubated overnight at 37° C. in an incubator with 5% CO2. […]
(§8) 4) The calcium ion activation rate was calculated for each well: % Activity=(signal value of sample well-average signal value of low-signal control well)/(average signal value of high-signal control well-average signal value of low-signal control well). Using the logarithm of the concentration of analogues as the horizontal axis and the activation rate of calcium ion fluorescence signal as the vertical axis, the “Nonlinear regression (curve fit)-log (antigen) vs. response Variable slope” model in GraphPad Prism 5.0 was used for fitting to calculate the EC50 of the sample.

[6] = target: T3, human Y5 receptor (hNPY5R) (Homo sapiens, UniProt Q15761); assay: calcium flux (FLIPR) assay, functional activity on human Y5 receptor; settings: read-out: hNPY5R EC50, average, at least 3 independent tests
T3 sequence (Q15761 1-445): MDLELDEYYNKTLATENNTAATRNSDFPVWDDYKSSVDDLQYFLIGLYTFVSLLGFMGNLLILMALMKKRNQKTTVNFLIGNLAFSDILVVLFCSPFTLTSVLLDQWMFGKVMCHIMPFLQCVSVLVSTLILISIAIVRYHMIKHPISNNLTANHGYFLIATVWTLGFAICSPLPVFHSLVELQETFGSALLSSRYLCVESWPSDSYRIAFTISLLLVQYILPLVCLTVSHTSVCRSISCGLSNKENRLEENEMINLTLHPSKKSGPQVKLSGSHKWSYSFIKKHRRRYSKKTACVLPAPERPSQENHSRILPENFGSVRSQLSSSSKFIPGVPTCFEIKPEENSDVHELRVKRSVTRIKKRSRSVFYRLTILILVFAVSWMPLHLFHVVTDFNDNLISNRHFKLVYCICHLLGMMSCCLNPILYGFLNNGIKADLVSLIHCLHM
Description: as §3, §4, §5, §6, §7, §8

Row | Substance | Accumulated food intake weight ([1]; 3 nmol/kg single s.c.) | Body weight changes ([1]; 3 nmol/kg single s.c.) | Accumulated food intake weight ([1]; 10 nmol/kg single s.c.) | Body weight changes ([1]; 10 nmol/kg single s.c.) | Accumulated food intake weight ([1]; 30 nmol/kg single s.c.) | Body weight changes ([1]; 30 nmol/kg single s.c.) | AUCinf [2] | Cmax [2] | T1/2 [2] | Tmax [2] | AUCinf [3] | Cmax [3] | T1/2 [3] | Tmax [3] | pEC50 [4] | pEC50 [5] | pEC50 [6]
1 | PKPEK(AEEAc-γGlu-CO(CH2)16COOH)PE-Aib-DASPEEWQRYY-Aib-ELRHYLNWLTRQRY-NH2 [Analogue 3] | 9.73 ± 0.48 g | −1.04% ± 2.02% | 8.24 ± 0.27 g | −0.69% ± 1.64% | 6.24 ± 0.26 g | −6.52% ± 1.37% | 336.537 µg·h/mL | 1775 ng/mL | 125.5 h | 12 h | 79.609 µg·h/mL | 1941 ng/mL | 24.7 h | 13.3 h | 10.43 | < 7.30 | 7.03
2 | PKPEK(AEEAc-γGlu-CO(CH2)16COOH)PEED-Aib-SPEEWQRYY-Aib-SLRHYLNWLTRQRY-NH2 [Analogue 1] | 11.54 ± 0.40 g | 2.32% ± 2.53% | 9.29 ± 0.27 g | 1.23% ± 2.92% | 8.10 ± 0.26 g | 0.51% ± 2.56% |  |  |  |  |  |  |  |  | 10.39 | < 7.30 | 
